Measurements reported in the supplement of paper PMC9334596.
Where a name gives a salt, the structure may show the parent alone.

Test system: mPer2Luc MEF
Assay: PER2::LUC luminescence relative to vehicle control (fold of vehicle); higher = higher PER2::LUC reporter signal
Protocol: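 Secondary dose-response validation of 72 circadian-modulating compounds in mPer2Luc MEFs, threefold dilution series of six doses from 10 uM down to 0.04 uM. PER2::LUC luminescence read at 24 h and 30 h after treatment, normalised to vehicle (DMSO) control.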

[1] = time after treatment: 24-hour, concentration: 0.04μM
[2] = time after treatment: 24-hour, concentration: 0.37μM
[3] = time after treatment: 24-hour, concentration: 3.33μM
[4] = time after treatment: 24-hour, concentration: 10μM
[5] = time after treatment: 30-hour, concentration: 0.04μM
[6] = time after treatment: 30-hour, concentration: 0.37μM
[7] = time after treatment: 30-hour, concentration: 3.33μM
[8] = time after treatment: 30-hour, concentration: 10μM

| Structure (SMILES) | PER2::LUC luminescence [1] | PER2::LUC luminescence [2] | PER2::LUC luminescence [3] | PER2::LUC luminescence [4] | PER2::LUC luminescence [5] | PER2::LUC luminescence [6] | PER2::LUC luminescence [7] | PER2::LUC luminescence [8] |
| --- | --- | --- | --- | --- | --- | --- | --- | --- |
| CCOC(=O)c1ccc(N(C)c2csc(-c3ccccc3)n2)cc1 [Neuropathiazol] | 0.939 | 1 | 1.04 | 1.1 | 0.913 | 0.937 | 1 | 1.08 |
| O=C(Nc1ccc(OC(F)(F)F)cc1)c1sccc1NCc1ccnc2ccccc12 [OSI-930] | 1.11 | 1.04 | 1.37 | 1.43 | 1.14 | 1.11 | 1.57 | 1.91 |
| CCOc1cc2ncc(C#N)c(Nc3ccc(F)c(Cl)c3)c2cc1NC(=O)/C=C/CN(C)C [Pelitinib (EKB-569)] | 0.891 | 0.933 | 0.78 | 0.334 | 0.836 | 0.815 | 0.618 | 0.227 |
| O=C(c1ccc(OCCN2CCCCC2)cc1)c1c(-c2ccc(O)cc2)sc2cc(O)ccc12 [Raloxifene HCl] | 0.941 | 0.955 | 0.814 | 0.287 | 1 | 0.996 | 0.896 | 0.512 |
| O=C1c2ccccc2C(=O)c2oc(-c3ccccc3)nc21 [SJB2-043] | 1.11 | 1.29 | 1.94 | 1.65 | 1.17 | 1.2 | 1.36 | 1.11 |
| CCc1nc(-c2cccc(C)c2)c(-c2ccnc(NC(=O)c3ccccc3)c2)s1 [TAK 715] | 0.993 | 0.95 | 0.955 | 0.895 | 0.926 | 0.929 | 0.924 | 0.888 |
| O=c1sn(-c2cccc3ccccc23)c(=O)n1Cc1ccccc1 [Tideglusib] | 0.908 | 0.902 | 0.864 | 0.879 | 0.9 | 0.856 | 0.886 | 0.891 |
| CN1CCc2c(c3ccccc3n2Cc2ccc(C(=O)NO)cc2)C1 [Tubastatin A HCl] | 1.07 | 1.05 | 1.05 | 0.699 | 0.984 | 0.982 | 0.916 | 0.576 |
| NS(=O)(=O)c1ccc(NC(=O)Nc2ccc(F)cc2)cc1 [U-104] | 1.04 | 1.05 | 1.01 | 0.876 | 1.05 | 1.06 | 1.06 | 0.947 |
| C[C@H](NC(=O)/C(C#N)=C/c1cccc(Br)n1)c1ccccc1 [WP1066] | 1.1 | 1.03 | 1.14 | 0.142 | 1.02 | 1.02 | 0.891 | 0.13 |
| CCOc1cc(C(=O)N2CCC(N3CCN(C)CC3)CC2)ccc1Nc1ncc2c(n1)N(C1CCCC1)c1ccccc1C(=O)N2C [XMD17-109] | 0.79 | 0.698 | 0.241 | 0.049 | 0.796 | 0.664 | 0.285 | 0.055 |
| COc1cc(-c2nc3ccccc3s2)ccc1O [YL-109] | 1.05 | 1.08 | 1.31 | 1.39 | 1.13 | 1.16 | 1.42 | 1.53 |
| CC(C)(C)c1ccc(-c2nc3ccccc3[nH]2)cc1 [ZLN005] | 0.223 | 0.131 | 0.076 | 0.065 | 0.357 | 0.204 | 0.098 | 0.075 |
